Laboratory results taken from patent publication US6906077B1, “Use of neurotrophic factor stimulators for the treatment of ophthalmic neurodegenerative diseases” (Alcon Manufacturing, Ltd., priority 1998, dated 2005).

What was measured:
[1] = tested on: RGCs (retinal ganglion cells); test: Retinal Ganglion Cell Survival Assay (serum deprivation); assay type: cell-based, Neonatal, Sprague-Dawley rats; settings: cultured without serum; Propentofylline 100 μM; 3 days after serum removal; survival with serum = 100%; mean and SEM (n = 6)
From the text: Retinal Ganglion Cell Survival Assay:
Techniques for the isolation and culture of RGCs were adapted from those reported by Takahashi N. et al., Rat retinal ganglion cells in culture. Exp. Eye Res. volume 53, pages 565-572 (1991). […] Two to 4 days later, retina cells were dissociated. Cultured RGCs were identified by sufficient Di-I fluorescence to be observed visually using a fluorescent microscope.
Neonatal, Sprague-Dawley rats, 2-5 days old, were anesthetized by hypothermia, after which, a 2 mm midline opening was made in the scalp just caudal to the traverse sinus. The tip of the injection needle (30 gauge) was inserted 6 mm below the top of the skull, and a 5 μl Di-I solution, containing 3 mg/ml Di-I (1,1′-dioctadecyl-3,3,3′,3′-tetramethylindo-carbocyanine perchlorate (Molecular Probes, Eugene, Oreg.) in 90% ethanol and 10% dimethylsulfoxide, was injected. The wound was then covered with a drop of Flexible Collodion (Amend Drug & Chemical Co., Irvington, N.J.). Rats were returned to their mother after warming and recovery from anesthesia.
Two to 4 days after Di-I injection, rats were anesthetized by hypothermia and sacrificed by decapitation. Their eyes were enucleated and placed in Dulbecco's modified Eagle's medium: Nutrient mixture F12 (1:1; DMEM/F12, Gibco Co., Grand Island, N.Y.). The retina from each eye was detached and isolated. […]

axotomized RGCs = settings: single intravitreal injection of 5 μg on Day 0; one week after; untreated retinas lost nearly half of the axotomized RGCs; cited from earlier work

Row | Molecule | RGC Survival (%) [1] | survival of axotomized RGCs (axotomized RGCs)
1 | CCCn1cnc2c1c(=O)n(CCCCC(C)=O)c(=O)n2C [Propentofylline, propentofylline] | 96.9 ± 4.8 % | –
2 | brain-derived neurotrophic factor (protein, UniProt P23560 19-247, looked up) Neurotrophic factor BDNF …: APMKEANIRGQGGLAYPGVRTHGTLESVNGPKAGSRGLTSLADTFEHVIEELLDEDQKVRPNEENNKDADLYTSRVMLSSQVPLEPPLLFLLEEYKNYLDAANMSMRVRRHSDPARRGELSVCDSISEWVTAADKKTAVDMSGGTVTVLEKVPVSKGQLKQYFYETKCNPMGYTKEGCRGIDKRHWNSQCRTTQSYVRALTMDSKKRIGWRFIRIDTSCVCTLTIKRGR | – | virtually all RGCs were present
